For one test, the system named is Rev-RRE complex. The test can be described thus: Fluorescence polarization (anisotropy) inhibition of Rev-RRE complex formation. The class given is binding, HIV-1. Particulars: for IC50: Rev-Fl / RRE, read-out: IC50 value for inhibiting complex formation; for potency of inhibiting Rev-RRE complex formation compared with neomycine B: anisotropy decrease versus inhibitor concentration. As for the experimental part:
By using a fluorescence polarization method, it was tested whether Rev-RRE complex formation was inhibited by naphthyridine dimer and the naphthyridine-azaquinolone hybrid.
A greater molecular weight results in a greater polarization degree, i.e., a greater anisotropy.
Naphthyridine dimer, the naphthyridine-azaquinolone hybrid, and neomycine B were used as inhibitors, and anisotropies of each of the inhibitors was measured. […] The horizontal axis indicates the concentration of each of the inhibitors.
An IC50 value of the trinaphthyridine-azaquinolone hybrid used as an inhibitor was obtained by using the fluorescence polarization method. The IC50 value of the trinaphthyridine-azaquinolone hybrid was 0.2 μM. Further, in FIG. 27, the solid line indicates how a CD spectrum of RRE alone was changed, the dotted line indicates how a CD spectrum of RRE was changed when naphthyridine dimer was added to RRE, the dashed line indicates how a CD spectrum of RRE was changed when the trinaphthyridine-azaquinolone hybrid was added to RRE, and […].
Naphthyridine dimer, the naphthyridine-azaquinolone hybrid, the neomycine B, and the trinaphthyridine-azaquinolone hybrid were used as inhibitors, and anisotropies of each of the inhibitors was measured.
A general note: Polarisation of emitted light reports the rotation of a fluorescent probe.

The test system of test [1] is RRE. The test can be described thus: UV absorption spectrum screening of drugs mixed with RRE. Format: binding, HIV-1. The note with it: range of 300 nm to 400 nm; absorption of free compound subtracted or compared. As for the experimental part: Referring to UV absorption spectra of RRE in the presence and absence of naphthyridine dimer, screenings of the drugs was carried out. […] In FIG. 7, the solid line indicates the UV absorption spectrum of RRE alone, and the dotted line indicates a UV absorption spectrum when the absorption of naphthyridine dimer free is subtracted from the absorption of the mixture of naphthyridine dimer and RRE. […] In FIG. 8, the solid line indicates the UV absorption spectrum of RRE alone, and the dotted line indicates a UV absorption spectrum when the absorption of the naphthyridine-azaquinolone hybrid free is subtracted from the absorption of the mixture of the naphthyridine-azaquinolone hybrid and RRE. […] In FIG. 9, the solid line indicates the UV absorption spectrum of RRE alone, and the dotted line indicates a UV absorption spectrum when the absorption of the first quinoline-containing compound free is subtracted from the absorption of the mixture of the first quinoline-containing compound and RRE. […] In FIG. 10, the solid line indicates the UV absorption spectrum of RRE alone, and the dotted line indicates a UV absorption spectrum when the absorption of the second quinoline-containing compound free is subtracted from the absorption of the mixture of the second quinoline-containing compound and RRE. As represented by structural formula (8), the second quinoline-containing compound is obtained by replacing one naphthyridine of naphthyridine dimer with a quinoline incapable of hydrogen-binding to a guanine. [drawing 13] In the present example, comparison was made within a range of 300 nm to 400 nm where no absorption of RRE occurs. Naphthyridine is represented by structural formula (9). Azaquinolone is represented by structural formula (10). […] FIGS. 11-13 respectively illustrate the UV absorption spectra of naphthyridine, azaquinolone, or quinolone alone and the mixture thereof with RRE.

In the next test the test system is RRE-neg. The test can be described thus: SPR binding of RNA to naphthyridine dimer immobilized on sensor chip. The note with it: RRE-neg over immobilized naphthyridine dimer. As for the experimental part:
Further, a change in CD spectrum of RRE-neg due to its binding to each of the drugs was analyzed. RRE-neg has no internal loop found in RRE, the internal loop including a GG mismatch and a GA mismatch.
(§1) In a manner shown in FIG. 17, a binding strength of each of RRE, RRE-neg, TAR, and single-stranded RNA (ss RNA) with respect to naphthyridine dimer immobilized on an SPR sensor chip was analyzed. Like RRE, TAR is known as an HIV-RNA target. In FIG. 18, the solid line indicates the binding strength of RRE, the dotted line the binding strength of RRE-neg, the dashed line the binding strength of TAR, and the double-dashed line the binding strength of ssRNA.
On the technique in general: In SPR one partner is held on a chip, and binding of the other changes the refractive index at the surface.

For test [2], the system named is RRE. The test can be described thus: UV titration of naphthyridine dimer with RRE. Format: binding, HIV-1. As for the experimental part:
UV titration was carried out in order to study how naphthyridine dimer bound to RRE.
It was confirmed that as the concentration of RRE increased, the UV absorbance of naphthyridine dimer decreased and the UV absorbance of a complex increased above an isosbestic point.

For test [3], the system named is RRE. Nature of the test: CD spectrum change of RRE (and RRE-neg control) on binding of drugs. The note with it: for binding specificity from CD spectra of RRE versus RRE-neg: RRE-neg has no internal loop (GG and GA mismatch). The arrangement: species or system HIV-1. As for the experimental part: A change in CD spectrum of RRE due to its binding to each of the drugs was analyzed. In FIG. 14, the solid line indicates a CD spectrum of RRE alone, the dotted line indicates a CD spectrum of a mixture of naphthyridine dimer and RRE, and the dashed line indicates a CD spectrum of a mixture of the naphthyridine-azaquinolone hybrid and RRE. Further, a change in CD spectrum of RRE-neg due to its binding to each of the drugs was analyzed. RRE-neg has no internal loop found in RRE, the internal loop including a GG mismatch and a GA mismatch.

In test [4] the test system is RRE. Nature of the test: SPR binding of RNA to naphthyridine dimer immobilized on sensor chip. Particulars: RRE over immobilized naphthyridine dimer. The arrangement: species or system HIV-1. Here is the method: as §1
Test [5] has as its system single-stranded RNA (ss RNA). Described as above. The note with it: ssRNA over immobilized naphthyridine dimer. As for the experimental part: as §1
The subject of another test is TAR. The description is as above. The arrangement: species or system HIV. The note with it: TAR RNA over immobilized naphthyridine dimer. Here is the method:
as §1

One may read the IC50 as the midpoint of a concentration-inhibition curve. For `Cc1ccc2ccc(NC(=O)CCN(CCCCCN(CCC(=O)Nc3ccc4ccc(C)nc4n3)CCC(=O)Nc3ccc4ccc(C)nc4n3)CCC(=O)NCc3ccc4ccc(=O)[nH]c4n3)nc2n1` [trinaphthyridine-azaquinolone hybrid], in the test on Rev-RRE complex (fluorescence polarization), the half-maximal inhibitory concentration (IC50) was found to be 200 nM and the “activity relative to neomycine B” value was “approximately twenty”.
As for `O=C(CCNCCC(=O)Nc1ccc2ccccc2n1)NCc1ccc2ccc(=O)[nH]c2n1` [second quinoline-containing compound], the “change in UV absorption spectrum on mixing with RRE” value (“change in UV absorption spectrum” below) with RRE [1] is on record as “no remarkable changes”.
As for `Cc1ccc2ccc(NC(=O)CCNCCC(=O)Nc3ccc4ccc(C)nc4n3)nc2n1` [naphthyridine dimer], the “binding strength (SPR signal)” value in the test with RRE-neg is recorded as “almost no responses”; in the test on RRE [4], “strong signal”; in test [5], “almost no responses”; in the test with TAR, “did not bind at all”. The “binding mode to RRE from UV titration” value in the test on RRE [2] (RRE of various concentrations, absorption at 332 nm) is recorded as “intercalated into a duplex of RRE”. Also, the “number of naphthyridine dimers forming the complex with RRE” value in the test with RRE [2] (UV titration) is on record as “two”. Moreover, the “change in CD spectrum of RRE when compound added” value in the test with RRE [3] is listed as “significant change in the whole spectrum”. Also, the “binding specificity from CD spectra of RRE versus RRE-neg” value in the test on RRE [3] is listed as “specifically binds to the internal loop of RRE”. Moreover, the “change in UV absorption spectrum” value in the test with RRE [1] is given as “significant changes”. In addition, the IC50 with Rev-RRE complex (fluorescence polarization) came to 1200 nM. The “potency of inhibiting Rev-RRE complex formation compared with neomycine B” value with Rev-RRE complex was “higher potency”.
With `Cc1ccc2ccc(NC(=O)CCNCCC(=O)Nc3ccc4ccccc4n3)nc2n1` [first quinoline-containing compound], the “change in UV absorption spectrum” value in the test on RRE [1] is “no remarkable changes”.
For the compound `NCC1OC(OC2C(CO)OC(OC3C(O)C(N)CC(N)C3OC3OC(CN)C(O)C(O)C3N)C2O)C(N)C(O)C1O` (stereo not shown) [neomycine B, reference compound], the IC50 in the test with Rev-RRE complex (fluorescence polarization) was 4000 nM.
`Cc1ccc2ccc(NC(=O)CCNCCC(=O)NCc3ccc4ccc(=O)[nH]c4n3)nc2n1` [naphthyridine-azaquinolone hybrid]: in the test on RRE [3], the “change in CD spectrum of RRE when compound added” value is “change at 300 nm or above” and the “binding specificity from CD spectra of RRE versus RRE-neg” value is reported as “specifically binds to the internal loop of RRE”. For the same compound, the “change in UV absorption spectrum” value in the test with RRE [1] is “significant changes”. The IC50 with Rev-RRE complex (fluorescence polarization) is 2000 nM. Also, the “potency of inhibiting Rev-RRE complex formation compared with neomycine B” value in the test on Rev-RRE complex was “higher potency”.
On to `NCCC(=O)Nc1ccc2ccccc2n1`, for which the “change in UV absorption spectrum” value in the test on RRE [1] is “almost no changes”.

The values are drawn from patent US20070037841A1, “Inhibitors” (priority 2003, published 2007).
